# Values joined by “and” are separate entries in the source; they are usually repeats but may differ in a detail not shown here. Identical values can stand only once. Peptide text beside a SMILES is read from it.
# How the values were obtained:
# [1] = system: S. aureus; assay: MIC, CLSI protocol, planktonic ESKAPE pathogens; type: cell-based, Staphylococcus aureus; conditions: N=4
# Method: (§1) Standard Clinical and Laboratory Standards Institute (CLSI) protocol was used to measure the minimum inhibitory concentration (MIC) against each organism. Biofilm model: Implant material was prepared from 0.6 mm diameter stainless steel Kirschner wire and plated at 0.5×10^6 CFU/ml. Mature biofilm developed over 48 hours, wires were washed, and then treated with 1 mg/mL WLBU-2 (SEQ ID: 10) in PBS (pH 7.4) for 5, 15, and 30 minutes. Quantitative culture (colony forming unit, CFU) analysis was then completed.
# (§2) ESKAPE pathogens were selected from a large clinical library of MDR and non-MDR organisms (n>100 organism). […] At 15 minutes, organisms had greater than a 3 log reduction in biofilm mass (E. faecium: 3 log 10; S. aureus: 5 log 10; K. pneumoniae 6 log 10; A. baumannii 5 log 10; P. aeruginosa 8 log 10; E. cloacae 7 log 10; E. coli 5 log 10).
# [2] = Local or systemic toxicity in animal models; type: in vivo
# [3] = system: gram-positive and gram-negative bacteria on infected prostheses; assay: Human patient knee explant study (Example 5), ex vivo CFU analysis, all implants; type: cell-based; conditions: 1 mg/mL in dPBS pH 7.4, 15 minutes; vs untreated implant of same patient
# Method: (§3) Patients diagnosed with chronic PJI were prospectively enrolled (n=17). All patients met the diagnosis of PJI as defined by the 2018 International Consensus Meeting criteria. The implant was first washed with 50 ml Dulbecco's PBS (dPBS) and submerged ex vivo in an expected clinical exposure of 1 mg/mL WLBU-2 (SEQ ID: 10) in Dulbecco's PBS (dPBS) adjusted to pH 7.4 for 15 minutes. After treatment, the sample was washed with 50 mL of dPBS and sonicated in PBS containing 1% Tween 20 for 5 minutes. After sonication, 100 microliters of the implant sonication fluid was serially diluted, and plated for quantitative culture (CFU analysis). The remaining explanted implant from the same patient served as a control and was processed similarly but without exposure to WLBU-2 (SEQ ID: 10).
# [4] = system: Haemophilus parainfluenzae; assay: Human patient knee explant study (Example 5), ex vivo CFU analysis; type: cell-based; conditions: treated vs untreated explant of same patient, 1 mg/mL, 15 minutes
# Method: as §3
# [5] = system: S. aureus (MRSA); assay: as above; type: cell-based; conditions: treated vs untreated explant of same patient, 1 mg/mL, 15 minutes
# Method: as §3
# [6] = system: E. faecalis; assay: as above; type: cell-based; conditions: treated vs untreated explant of same patient, 1 mg/mL, 15 minutes
# Method: as §3
# [7] = system: S. aureus (MSSA); assay: as above; type: cell-based; conditions: treated vs untreated explant of same patient, 1 mg/mL, 15 minutes
# Method: as §3
# [8] = system: S. caprae; assay: as above; type: cell-based; conditions: treated vs untreated explant of same patient, 1 mg/mL, 15 minutes
# Method: as §3
# [9] = system: S. dysgalactiae; assay: as above; type: cell-based; conditions: treated vs untreated explant of same patient, 1 mg/mL, 15 minutes
# Method: as §3
# [10] = system: E. coli; assay: as above; type: cell-based; conditions: treated vs untreated explant of same patient, 1 mg/mL, 15 minutes
# Method: as §3
# [11] = system: S. hemolyticus; assay: as above; type: cell-based; conditions: treated vs untreated explant of same patient, 1 mg/mL, 15 minutes
# Method: as §3
# [12] = system: E. cloacae; assay: MIC, CLSI protocol, planktonic ESKAPE pathogens; type: cell-based; conditions: N=2
# Method: as §1, §2
# [13] = system: E. coli; assay: MIC, CLSI protocol, planktonic ESKAPE pathogens; type: cell-based; conditions: N=8
# Method: as §1, §2
# [14] = system: P. aeruginosa; assay: MIC, CLSI protocol, planktonic ESKAPE pathogens; type: cell-based, Pseudomonas aeruginosa; conditions: N=20
# Method: as §1, §2
# [15] = system: K. pneumoniae; assay: MIC, CLSI protocol, planktonic ESKAPE pathogens; type: cell-based, Klebsiella pneumoniae; conditions: N=8
# Method: as §1, §2
# [16] = system: A. baumannii; assay: MIC, CLSI protocol, planktonic ESKAPE pathogens; type: cell-based, Acinetobacter baumannii; conditions: N=24
# Method: as §1, §2
# [17] = system: bacterial burden; assay: Survival study with rabbit PJI model; type: in vivo; conditions: for survival rates of rabbits as a function of days post-infection: observed up to 14 days (Group 4: 28 days)
# Method: In the following Examples 1-5, the administered WLBU-2 formulations were prepared as described in this paragraph. Exemplary pharmaceutical formulations comprising WLBU-2 were prepared at concentrations of 0.5 mg/mL and 1.0 mg/mL in vehicle (dPBS), by formulating under aseptic conditions. WLBU-2 was added while mixing to approximately 90% of volume with vehicle, and mixed until the solution was clear. The solution was adjusted to pH 7.4 using a 1% NaOH solution. dPBS was added quantity sufficient to final volume. The final pH of the solution was read and recorded.
# This example illustrates the antibacterial activity an exemplary formulation of WLBU-2, beta lactam antibiotic, and in combination in reducing CFU in vivo with varying concentrations and time of exposure.
# A bone tunnel in the tibial canal was created using a drill with a 1.2 mm or 1.6 mm tungsten carbide drill bit. The bone tunnel was then dried and treated to simulate acute human PJI following primary arthroplasty. A Kirschner wire implant was placed in the bone tunnel and the wound closed. Prior to closure of the superficial skin layer, 0.1 mL of 2×10^6 planktonic bacteria (CFU/rabbit) in saline was injected into the joint space. A closure was performed, and a biofilm was allowed to become established over a period of 2 days.
# In each group, the joint space was reopened and treated with I&D at 2 days post-infection. Group 1 received neither cefazolin nor WLBU-2. Group 2 received cefazolin but not WLBU-2. Group 3 received WLBU-2 but not the cefazolin. Group 4 received both cefazolin and WLBU-2 treatment. Where applicable, cefazolin was delivered subcutaneously at 10 mg/kg BID for 5 days. Where applicable, WLBU-2 was delivered with 2 ml of WLBU-2 at 1 mg/ml with exposure of 15 minutes. […] When an animal was sick or needed to be euthanized, the implant and a part of the tibia was collected postmortem and CFU analysis was performed. All surviving animals (except for Group 4) were euthanized on day 14 and the implant and tibia were collected most mortem.
# [18] = cefazolin 10 mg/kg sc BID 5 days and/or WLBU-2 2 ml at 1 mg/ml 15 minutes, vs untreated Group 1
# [19] = cefazolin 10 mg/kg sc BID 5 days and/or WLBU-2 2 ml at 1 mg/ml 15 minutes, vs untreated Group 1, listed as cefazolin
compound,measurement,setting,value
"C[C@H]1COc2c(N3CCN(C)CC3)c(F)cc3c(=O)c(C(=O)O)cn1c23 [LVX, levofloxacin]",minimum inhibitory concentration (MIC),[1],.015-.03
"CC(=O)NC[C@H]1CN(c2ccc(N3CCOCC3)c(F)c2)C(=O)O1 [LZD, linezolid]",minimum inhibitory concentration (MIC),[1],4
"CC(C)[C@H](NC(=O)[C@H](Cc1c[nH]c2ccccc12)NC(=O)[C@H](CCCNC(=N)N)NC(=O)[C@H](CCCNC(=N)N)NC(=O)[C@@H](NC(=O)[C@@H](NC(=O)[C@H](CCCNC(=N)N)NC(=O)[C@@H](NC(=O)[C@@H](NC(=O)[C@H](CCCNC(=N)N)NC(=O)[C@H](CCCNC(=N)N)NC(=O)[C@H](Cc1c[nH]c2ccccc12)NC(=O)[C@@H](NC(=O)[C@H](CCCNC(=N)N)NC(=O)[C@H](CCCNC(=N)N)NC(=O)[C@@H](NC(=O)[C@H](CCCNC(=N)N)NC(=O)[C@H](CCCNC(=N)N)NC(=O)[C@@H](NC(=O)[C@H](Cc1c[nH]c2ccccc12)NC(=O)[C@H](CCCNC(=N)N)NC(=O)[C@@H](N)CCCNC(=N)N)C(C)C)C(C)C)C(C)C)C(C)C)C(C)C)C(C)C)C(C)C)C(=O)N[C@@H](CCCNC(=N)N)C(=O)N[C@@H](CCCNC(=N)N)C(=O)O [WLBU-2, RRWVRRVRRVWRRVVRVVRRWVRR] (H-RRWVRRVRRVWRRVVRVVRRWVRR-OH)",toxicity to local tissue,"[2]; 1 mg/mL for 15 minutes, murine and rabbit PJI animal models",non-toxic to local tissue
same,local or systemic toxicity,[2]; therapeutic range of dosing in animal models,does not have significant local or systemic toxicity
same,mean log reduction,[3],6 log
same,range of log reduction,[3],2-7.70 log
same,Log reduction,[4],7.7
same,Log reduction,[5],7.7
same,Log reduction,[6],6.7
same,Log reduction,[7],3.6
same,Log reduction,[8],7.7
same,Log reduction,[9],4.0
same,Log reduction,[10],6.2 and 5.9
same,Log reduction,[11],2.9
"CN[C@H](CC(C)C)C(=O)N[C@H]1C(=O)N[C@@H](CC(N)=O)C(=O)N[C@H]2C(=O)N[C@H]3C(=O)N[C@H](C(=O)N[C@H](C(=O)O)c4cc(O)cc(O)c4-c4cc3ccc4O)[C@H](O)c3ccc(c(Cl)c3)Oc3cc2cc(c3O[C@@H]2O[C@H](CO)[C@@H](O)[C@H](O)[C@H]2O[C@H]2C[C@](C)(N)[C@H](O)[C@H](C)O2)Oc2ccc(cc2Cl)[C@H]1O [VAN, vancomycin]",minimum inhibitory concentration (MIC),[1],1
colistin,minimum inhibitory concentration (MIC),[12],.06-.25
same,minimum inhibitory concentration (MIC),[13],.06-.25
same,minimum inhibitory concentration (MIC),[14],.12-2^
same,minimum inhibitory concentration (MIC),[15],.06-16
"CN(C)c1cc(NC(=O)CNC(C)(C)C)c(O)c2c1C[C@H]1C[C@H]3[C@H](N(C)C)C(O)=C(C(N)=O)C(=O)[C@@]3(O)C(O)=C1C2=O [TIG, tigecycline]",minimum inhibitory concentration (MIC),[12],0.5-2
same,minimum inhibitory concentration (MIC),[13],.25-0.5
same,minimum inhibitory concentration (MIC),[16],1-16
same,minimum inhibitory concentration (MIC),[15],0.5-2
"C[C@@H](O)[C@H]1C(=O)N2C(C(=O)O)=C(SCCN=CN)C[C@H]12 [IPM, imipenem]",minimum inhibitory concentration (MIC),[12],0.25
same,minimum inhibitory concentration (MIC),[1],.015-.03
Cc1nnc(SCC2=C(C(=O)O)N3C(=O)[C@@H](NC(=O)Cn4cnnn4)[C@H]3SC2)s1 [Cefazolin],body weight as a function of days post infection,"[17]; I&D 2 days post-infection, cefazolin 10 mg/kg sc BID 5 days and/or WLBU-2 2 ml at 1 mg/ml 15 minutes",No significance
same,"bacterial burden of collected implants (CFU analysis), reduction",[17]; [18],significantly lower bacterial burden
same,"bacterial burden of collected tibia (bone CFU analysis), reduction",[17]; [18],2.6 log
same,"total CFU (implant and bone), reduction in total bacterial burden",[17]; [18],Significant reductions in total bacterial burden
same,"bacterial burden of collected tibia (bone CFU analysis), reduction",[17]; [19],significantly lower bacterial burden
same,"total CFU (implant and bone), reduction in total bacterial burden",[17]; [19],significantly lower bacterial burden
same,survival rates of rabbits as a function of days post-infection,[17]; vs untreated Group 1,improved survival in comparison to Group 1
same,survival rates of rabbits as a function of days post-infection,"[17]; vs untreated Group 1, listed as cefazolin",second-best survival rates

# — patent publication US20240317809A1, “Engineered Antimicrobial Peptides and Usage Thereof” (University of Pittsburgh-Of the Commonwealth System of …, priority 2021, published 2024)
